Laboratory results reported in US12419869B2, “Methods of treating multiple sclerosis” (Vanda Pharmaceuticals Inc., priority 2021, dated 2025).

Legend:
Assay type in all cases: in vivo, human
[1] = system: adult subjects with relapsing MS; test: Confirmed relapses / annualized relapse rate up to EOS, phase III study ponesimod 20 mg vs teriflunomide 14 mg; conditions: for Mean estimate (ARR), confirmed relapses up to EOS: negative binomial regression, teriflunomide 14 mg, ponesimod 20 mg; for Percentage of patients without relapse: study period of approximately 108 weeks
Experimental: Primary efficacy variable/primary timepoint: The primary endpoint was annualized relapse rate (ARR) up to the end of study (EOS) defined as the number of confirmed relapses per subject-year. All available data up to EOS, regardless of treatment discontinuation was included (ITT approach).
The primary statistical analysis of the ARR endpoint was performed on the FAS using a negative binomial model for confirmed relapses, with the stratification variables prior use of disease-modifying therapies (DMTs) and EDSS category as well as the number of relapses in the year prior to study entry, included in the model and time in the study as an offset variable. Sensitivity analyses was performed on the PPS and also based on different subgroups derived from baseline variables.
A relapse is defined as new, worsening or recurrent neurological symptoms that occur at least 30 days after the onset of a preceding relapse, and that last at least 24 hours, in the absence of fever or infection.
A relapse was confirmed by the treating neurologist only when the subjects' symptoms were accompanied by an increase in EDSS/FS (functional system) scores, which were consistent with the subject's symptoms, from a previous clinically stable EDSS/FS assessment (i.e., performed at least 30 days after the onset of any previous relapse), obtained by the efficacy assessor and consistent with the following: • An increase of at least half a step (0.5 points; unless EDSS=0, then an increase of at least 1.0 points is required) or • An increase of at least 1.0 point in at least two FS scores, or • An increase of at least 2.0 points in at least one FS score (excluding bladder/bowel and cerebral).
The primary statistical analysis was performed up to EOS on the FAS using a negative binomial regression model for confirmed relapses, with treatment as a factor and the binary stratification variables (EDSS≤3.5 versus EDSS>3.5; DMTs within last 2 years prior to randomization [Yes/No]) and the number of relapses in the year prior to study entry (categories≤1 (or missing) and […]) included in the model. The model also included an offset variable defined as the log of time on study (in years) from randomization up to EOS.

[2] = system: adult subjects with relapsing MS; test: 12-lead ECG heart rate and AV conduction at treatment initiation (Day 1, ponesimod 2 mg)
Experimental: As per up-titration regimen, the dose of ponesimod on Day 1 is 2 mg.
The incidence of treatment-emergent heart rate and rhythm (including hypotension) AESIs on Day 1 was higher in the ponesimod 20 mg arm (2.1%) than in the teriflunomide 14 mg arm (0.4%). However, the overall incidence of first dose AESI on Day 1 was low (2.1%) in ponesimod. None of these events were serious nor led to permanent discontinuation of study treatment. Discharge criteria at 4 hours post-dose were met for ca. 99% of subjects. […] ECG HR effect: nadir at 2 hours post-dose (siponimod—3-4 hours, fingolimod—around by 6 hours). Low incidence of low HR outliers (post-dose HR 40 bpm), all 3 of them with a pre-treatment HR of <55 bpm, which is a known risk factor for post-dose bradycardia with SIP receptor modulators.
The mean heart rate reduction compared to pre-dose reached a maximum for ponesimod 20 mg at 2-hours post dose, −8.7 bpm compared to −1.7 bpm for teriflunomide 14 mg (FIG. 6).
Initiation of PONVORY may result in a transient decrease in HR. In Study 1, bradycardia at treatment initiation and sinus bradycardia on ECG (defined as HR less than 50 bpm) occurred in 5.8% of PONVORY-treated patients compared to 1.6% of patients receiving teriflunomide 14 mg. After the first titration dose of PONVORY, the decrease in heart rate typically begins within an hour and reaches its nadir within 2-4 hours. The heart rate typically recovers to baseline levels 4-5 hours after administration. The mean decrease in heart rate on Day 1 of dosing was 6 bpm. With up-titration after Day 1, the post-dose decrease in heart rate is less pronounced. […] On Day 1, 3 patients treated with PONVORY had asymptomatic post-dose HR below or equal to 40 bpm; all 3 patients had baseline HRs below 55 bpm.

[3] = system: adult subjects with relapsing MS; test: EDSS, time to first 12-week / 24-week confirmed disability accumulation (CDA); conditions: for Proportion of Patients with 3-month Confirmed Disability Progression: Kaplan-Meier estimates at Week 108; for Hazard ratio, time to first 12-week CDA (3-month CDP), ponesimod vs teriflunomide: stratified Cox regression
Text: (§1) A 12-week CDA is an increase of at least 1.5 in EDSS for subjects with a baseline EDSS score of 0.0 or an increase of at least 1.0 in EDSS for subjects with a baseline EDSS score of 1.0 to 5.0, or an increase of at least 0.5 in EDSS for subjects with a baseline EDSS score≥5.5 which is to be confirmed after 12 weeks.
All EDSS measurements (with or without relapse, at a scheduled or unscheduled visit) were used to determine the onset of disability accumulation. However, EDSS scores used for confirmation of disability accumulation were obtained at a scheduled visit (i.e., unscheduled visits cannot be used as confirmatory visits) outside any ongoing relapse. In this context, relapse duration is defined as period between start and end dates if available and limited to 90 days from onset if end date is not available or duration is longer than 90 days.
In order to confirm that the EDSS increase is persistent, all EDSS measurements between the onset and the 12-week EDSS confirmation (minus 7-day visit time-window) need to show an increase in EDSS, meeting the criteria for accumulation of disability as defined above.
as §1, with “24-week” for “12-week”, “24” for “12”
The primary endpoint was the annualized relapse rate (ARR) over the study period. Additional outcome measures included: 1) the number of new Gd-enhancing T1 lesions from baseline to Week 108, 2) the number of new or enlarging T2 lesions (without double-counting of lesions) from baseline to Week 108, and 3) the time to 3-month and 6-month confirmed disability progression. A confirmed disability progression was defined as an increase of at least 1.5 in EDSS for patients with a baseline EDSS score of 0, an increase of at least 1.0 in EDSS for patients with a baseline EDSS score of 1.0 to 5.0, or an increase of at least 0.5 in EDSS for patients with a baseline EDSS score at least 5.5, which was confirmed after 3 months and 6 months.

C/C(O)=C(\C#N)C(=O)Nc1ccc(C(F)(F)F)cc1 [Teriflunomide, reference compound]
Mean estimate (ARR), confirmed relapses up to EOS ([1]; Full Analysis Set): 0.290 | Percentage of patients without relapse [1]: 60.6% | Mean heart rate change compared to pre-dose at 2 hours post dose (maximum) ([2]; Day 1): −1.7 bpm | Subjects with asymptomatic post-dose HR ≤40 bpm ([2]; Day 1): none | Bradycardia at treatment initiation and sinus bradycardia on ECG (HR less than 50 bpm) ([2]; Study 1): 1.6% | First-degree AV block (prolonged PR interval on ECG) ([2]; Study 1): 1.2% | Proportion of Patients with 3-month Confirmed Disability Progression [3]: 13.2% | Subjects with 24-week CDA ([3]; up to EOS): 9.9%

CCC/N=C1\S/C(=C\c2ccc(OC[C@H](O)CO)c(Cl)c2)C(=O)N1c1ccccc1C [Ponesimod, (R)-5-[3-chloro-4-(2,3-dihydroxy-propoxy)-benz[Z]ylidene]-2-([Z]-propylimino)-3-o-tolyl-thiazolidin-4-one]
Raw ARR ([1]; Full Analysis Set, up to EOS): 0.216 | Total number of relapses ([1]; Full Analysis Set, up to EOS): 242 | Treatment effect (rate ratio) on ARR, ponesimod vs teriflunomide ([1]; Full Analysis Set, up to EOS): 0.695 | Mean estimate (ARR), confirmed relapses up to EOS ([1]; Full Analysis Set): 0.202 | Percentage of patients without relapse [1]: 70.7% | Relative reduction of ARR compared to teriflunomide 14 mg ([1]; up to EOS): 30.5% | Mean heart rate change compared to pre-dose at 2 hours post dose (maximum) ([2]; Day 1): −8.7 bpm | Subjects meeting discharge criteria at 4 hours post-dose ([2]; Day 1): ca. 99% | Subjects with asymptomatic post-dose HR ≤40 bpm ([2]; Day 1): 3 | Time for heart rate to recover to baseline / pre-dose values ([2]; Day 1): 4 to 5 h | ECG HR effect: time of nadir post-dose ([2]; Day 1, 2 mg): 2 h | Bradycardia at treatment initiation and sinus bradycardia on ECG (HR less than 50 bpm) ([2]; Study 1): 5.8% | First-degree AV block (prolonged PR interval on ECG) ([2]; Study 1): 3.4% | Mean decrease in heart rate on Day 1 of dosing ([2]; Study 1): 6 bpm | Second- and third-degree AV blocks ([2]; Study 1): not reported | Time to heart rate nadir / maximal effect after first dose ([2]; post-dose): 2 to 4 h | Proportion of Patients with 3-month Confirmed Disability Progression [3]: 10.8% | Hazard ratio, time to first 24-week CDA, ponesimod vs teriflunomide ([3]; exploratory): 0.84 | Reduction of risk of 12-week CDA compared to teriflunomide 14 mg ([3]; not statistically significant): 17% | Reduction of risk of 24-week CDA compared to teriflunomide 14 mg ([3]; not statistically significant): 16% | Hazard ratio, time to first 12-week CDA (3-month CDP), ponesimod vs teriflunomide [3]: 0.83 | Hazard ratio, time to first 12-week CDA (3-month CDP), ponesimod vs teriflunomide ([3]; listed as PONVORY): 0.83 (p = 0.29) | Hazard ratio, time to first 12-week CDA (3-month CDP), ponesimod vs teriflunomide ([3]; listed as ponesimod): 0.83 | Subjects with 12-week CDA ([3]; up to EOS): 10.1% | Subjects with 24-week CDA ([3]; up to EOS): 8.1%
